Ki, EC50 and Emax data for eleven molecules are collected here from patent US6127382A, “Amines substituted with a tetrahydroquinolinyl group an aryl or heteroaryl group and an alkyl group, having retinoid-like biological activity” (Allergan Sales, Inc., priority 1999, dated 2000).

Molecules are shown by their SMILES. Changes are numbered by the printed parent chain.

Assay [1] concerns the target T1, RXRα (Homo sapiens, UniProt P19793).
T1 construct: expressed in transfected cells
T1 sequence (P19793 1-462): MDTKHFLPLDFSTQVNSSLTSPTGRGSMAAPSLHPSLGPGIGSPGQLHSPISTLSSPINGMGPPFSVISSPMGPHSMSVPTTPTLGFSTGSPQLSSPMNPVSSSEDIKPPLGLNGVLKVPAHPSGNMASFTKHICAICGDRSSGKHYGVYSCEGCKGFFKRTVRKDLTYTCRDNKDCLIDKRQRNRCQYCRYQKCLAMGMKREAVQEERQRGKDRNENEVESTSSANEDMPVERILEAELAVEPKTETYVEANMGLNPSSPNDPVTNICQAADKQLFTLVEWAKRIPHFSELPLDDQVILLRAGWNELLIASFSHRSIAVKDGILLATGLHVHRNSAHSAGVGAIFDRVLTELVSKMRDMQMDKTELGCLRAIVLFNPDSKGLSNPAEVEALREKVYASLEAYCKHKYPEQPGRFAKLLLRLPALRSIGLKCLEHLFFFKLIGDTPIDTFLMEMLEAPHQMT
In words: ligand binding assay, RXRα. The note with it: read-out: RXR Bind Ki α. The text has this:
(§1) Other assays described below, measure the ability of the compounds of the present invention to bind to, and/or activate various retinoid receptor subtypes. When in these assays a compound binds to a given receptor subtype and activates the transcription of a reporter gene through that subtype, then the compound is considered an agonist of that receptor subtype. […] In the below described assays the ability of the compounds to bind to RARα, RARβ, RARγ, RXRα, RXRβ and RXRγ receptors, and the ability or inability of the compounds to activate transcription of a reporter gene through these receptor subtypes can be tested. […] However, some of the compounds of the invention may behave as retinoid antagonists or partial antagonists and/or as inverse agonists. Because of the complex distribution of the different retinoid receptors in various organs of the mammalian body partial agonists and partial antagonists and compounds which have the characteristics of both may lend themselves to particularly useful therapeutic applications and may avoid serious side effects of conventional retinoid drugs.
(§2) A holoreceptor transactivation assay and a ligand binding assay which measure the antagonist/agonist like activity of the compounds of the invention, or their ability to bind to the several retinoid receptor subtypes, respectively, are described in published PCT Application No. WO WO93/11755 (particularly on pages 30-33 and 37-41) published on Jun. 24, 1993, the specification of which is also incorporated herein by reference. A detailed experimental procedure for holoreceptor transactivations has been described by Heyman et al. Cell 68, 397-406, (1992); Allegretto et al. J. Biol. Chem. 268, 26625-26633, and Mangelsdorf et al. The Retinoids: Biology, Chemistry and Medicine, pp 319-349, Raven Press Ltd., New York, which are expressly incorporated herein by reference. The results obtained in this assay are expressed in EC50 numbers, as they are also in the chimeric receptor transactivation assay. The results of ligand binding assay are expressed in Kd numbers. (See Cheng et al. Biochemical Pharmacology Vol. 22 pp 3099-3108, expressly incorporated herein by reference.)
(§3) Table 1 discloses the activity of certain exemplary compounds of the invention in the above-described chimeric receptor transactivation assay, holoreceptor transactivation assay and a ligand binding assays. Particularly, the transactivation data pertaining to RAR receptors were obtained in the chimeric assay, and the data pertaining to transactivation of RXR receptors were obtained in the holoreceptor transactivation assay.

The target of assay [2] is T2, RXRγ (Homo sapiens, UniProt P48443).
T2 sequence (P48443 1-463): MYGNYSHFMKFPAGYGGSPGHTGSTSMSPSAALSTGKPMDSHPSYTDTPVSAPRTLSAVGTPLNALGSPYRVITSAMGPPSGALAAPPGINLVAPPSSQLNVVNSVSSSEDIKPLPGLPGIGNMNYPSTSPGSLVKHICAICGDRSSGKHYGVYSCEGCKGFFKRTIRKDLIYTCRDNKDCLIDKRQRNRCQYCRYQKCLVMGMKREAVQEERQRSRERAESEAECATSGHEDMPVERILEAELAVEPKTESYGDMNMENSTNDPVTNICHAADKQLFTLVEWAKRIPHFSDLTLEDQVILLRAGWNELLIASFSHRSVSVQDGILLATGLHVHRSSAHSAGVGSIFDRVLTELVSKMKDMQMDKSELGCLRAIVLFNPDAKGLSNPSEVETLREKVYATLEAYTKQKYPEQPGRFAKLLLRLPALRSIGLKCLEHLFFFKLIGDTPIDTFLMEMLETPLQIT
In words: ligand binding assay, RXRγ. As to conditions: read-out: RXR Bind Ki γ.
Source text: as §1, §2, §3

The target in another assay is T3, RARβ (Homo sapiens, UniProt P10826).
T3 sequence (P10826 1-448 isoform P10826-2): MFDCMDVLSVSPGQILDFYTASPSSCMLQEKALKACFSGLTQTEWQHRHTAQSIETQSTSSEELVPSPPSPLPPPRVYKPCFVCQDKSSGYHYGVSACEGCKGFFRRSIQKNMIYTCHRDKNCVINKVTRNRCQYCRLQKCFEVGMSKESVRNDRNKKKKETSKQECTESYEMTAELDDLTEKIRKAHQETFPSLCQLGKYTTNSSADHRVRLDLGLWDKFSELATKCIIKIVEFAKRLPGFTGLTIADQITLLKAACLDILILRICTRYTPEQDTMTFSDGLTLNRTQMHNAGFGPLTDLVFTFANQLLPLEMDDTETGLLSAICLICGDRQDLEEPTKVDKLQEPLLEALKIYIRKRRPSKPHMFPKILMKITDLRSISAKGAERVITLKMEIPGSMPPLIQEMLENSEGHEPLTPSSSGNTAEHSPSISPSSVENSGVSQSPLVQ
As to the kind of experiment: ligand binding assay, RARβ. As to conditions: read-out: RAR Bind Ki β.
Source text: as §1, §2, §3

Assay [3] has as its target T4, RXRγ (Mus musculus, UniProt P28705).
T4 construct: expressed in transfected cells
T4 sequence (P28705 1-463): T2 sequence (P48443 1-463) with A13T, Y15F, A31V, S34P, T228S, G230S, M258V, T450S
In words: holoreceptor transactivation assay, RXRγ. Format: cell-based. As to conditions: for EC50: holoreceptor assay, read-out: RXR Trans EC50 γ; for Emax: relative to 10^-6 M cyclopropyl penta-2,4-dienoic acid reference, read-out: % efficacy, RXRγ transactivation.
Source text: as §1, §2, §3

Assay [4] concerns the target T1, RXRα. In words: holoreceptor transactivation assay, RXRα. As to conditions: for EC50: holoreceptor assay, read-out: RXR Trans EC50 α; for Emax: relative to 10^-6 M cyclopropyl penta-2,4-dienoic acid reference, read-out: % efficacy, RXRα transactivation. The assay is classed as cell-based.
Source text: as §1, §2, §3

Turning to `CC(C)CCN(c1ccc(C(=O)O)cc1)c1ccc2c(c1)C(C)(C)CCN2C(C)C` [Compound 14, 4-[(1-Isopropyl-4,4-dimethyl-1,2,3,4-tetrahydroquinolin-6-yl)(3-methylbutyl)amino]-benzoic Acid], the Ki on RXRα [1] is 0.904 µM; at RXRγ [2], more than 1 µM; at RARβ, 7.7 µM.

As to `Cc1cc2c(cc1N(CC1CC1)c1ccc(C(=O)O)cc1)C(C)(C)CCN2C(C)C` [Compound 26, 4-[(1-Isopropyl-4,4,7-trimethyl-1,2,3,4-tetrahydro-quinolin-6-yl)(cyclopropylmethyl)amino]benzoic acid], the inhibition constant (Ki) on RXRα [1] is 0.413 µM; at RXRγ [2], 1.3 µM; on RARβ, 11 µM. In addition, the EC50 on RXRγ [3] was 1 µM; on RXRα [4] it was more than 1 µM. For the same molecule, the Emax at RXRγ [3] was determined as 75%; on RXRα [4], 25%.

As for `CCN(c1ccc(C(=O)O)cc1)c1cc2c(cc1C)N(C(C)C)CCC2(C)C` [Compound 24, 4-[(1-Isopropyl-4,4,7-trimethyl-1,2,3,4-tetrahydroquinolin-6-yl)ethylamino]benzoic acid], the inhibitory constant (Ki) on RXRα [1] is 0.448 µM; at RXRγ [2] it was more than 1 µM; at RARβ it was more than 10 µM. Also, the values for the EC50 at RXRγ [3] and on RXRα [4] were 0.069 µM and 0.036 µM, respectively. The Emax worked out at 117% at RXRγ [3] and 90% on RXRα [4].

For `Cc1cc2c(cc1Nc1ccc(C(=O)O)cc1)N(C(C)C)CCC2(C)C` [Compound 50, 4-(1-Isopropyl-4,4,6-trimethyl-1,2,3,4-tetrahydro-quinolin-7-ylamino)-benzoic acid], the Ki is 0.327 µM at RXRα [1] and more than 1 µM at RXRγ [2]. The EC50 at RXRγ [3] and at RXRα [4] was 0.004 µM in each case. Further, the Emax at RXRγ [3] worked out at 102%; on RXRα [4] it was 103%.

In the case of `CCCN(c1ccc(C(=O)O)cc1)c1cc2c(cc1C)C(C)(C)CCN2C(C)C` [Compound 53, 4-[(1-Isopropyl-4,4,6-trimethyl-1,2,3,4-tetrahydro-quinolin-7-yl)-propyl-amino]-benzoic acid], the inhibition constant (Ki) on RXRα [1] was 0.044 µM; at RXRγ [2] it was 0.095 µM. Moreover, the EC50 worked out at 0.0003 µM at RXRγ [3] and 0.0002 µM on RXRα [4]. Moreover, the Emax amounted to 96% on RXRγ [3] and 92% at RXRα [4].

Turning to `CC(C)N1CCC(C)(C)c2cc(N(C)c3ccc(C(=O)O)cc3)ccc21` [Compound 10, 4-[(1-Isopropyl-4,4-dimethyl-1,2,3,4-tetrahydroquinolin-6-yl)methylamino]benzoic Acid], the Ki on RXRα [1] was more than 1 µM; on RXRγ [2], more than 10 µM; at RARβ, more than 10 µM. The EC50 at RXRγ [3] and on RXRα [4] was 1 µM in each case. Moreover, the Emax at RXRγ [3] came to 50%; on RXRα [4], 70%.

For the molecule `CCN(c1ccc(C(=O)O)cc1)c1ccc2c(c1)C(C)(C)CCN2C(C)C` [Compound 12, 4-[(1-Isopropyl-4,4-dimethyl-1,2,3,4-tetrahydroquinolin-6-yl)ethylamino]benzoic acid], the Ki at RXRα [1] amounted to 0.136 µM; on RXRγ [2] it was 1.3 µM; on RARβ, 7.9 µM. Moreover, the concentration giving a half-maximal response (EC50) is 0.148 µM on RXRγ [3] and 0.078 µM at RXRα [4]. For the same molecule, the Emax at RXRγ [3] worked out at 150%; on RXRα [4], 134%.

With `CC(C)CN(c1ccc(C(=O)O)cc1)c1ccc2c(c1)N(C(C)C)CCC2(C)C` [Compound 39, 4-[(1-Isopropyl-4,4-dimethyl-1 2,3,4-tetrahydroquinolin-7-yl)isobutylamino]benzoic acid], the Ki at RXRα [1] was 0.049 µM; at RXRγ [2], 0.06 µM; at RARβ, more than 10 µM. For the same molecule, the results for the EC50 at RXRγ [3] and at RXRα [4] were 0.002 µM and 0.001 µM, respectively. Also, the values for the Emax on RXRγ [3] and on RXRα [4] were 112% and 121%, respectively.

Consider `CCN(c1ccc(C(=O)O)cc1)c1cc2c(cc1C)C(C)(C)CCN2C(C)C` [Compound 52, 4-[-(1-Isopropyl-4,4,6-trimethyl-1,2,3,4-tetrahydro-quinolin-7-yl)ethylamino]-benzoic acid], for which the Ki amounted to 0.028 µM on RXRα [1] and 0.038 µM at RXRγ [2]. The EC50 at RXRγ [3] came to 0.0005 µM; on RXRα [4] it was 0.0002 µM. For the same molecule, the Emax at RXRγ [3] is 96%; on RXRα [4], 94%.

As to `Cc1cc2c(cc1N(C)c1ccc(C(=O)O)cc1)N(C(C)C)CCC2(C)C` [Compound 51, 4-[(1-Isopropyl-4,4,6-trimethyl-1,2,3,4-tetrahydro-quinolin-7-yl)-methyl-amino]-benzoic acid], the Ki at RXRα [1] stood at 0.221 µM; at RXRγ [2], 0.317 µM. Moreover, the figures for the EC50 on RXRγ [3] and at RXRα [4] were 0.047 µM and 0.032 µM, respectively. The Emax worked out at 104% at RXRγ [3] and 92% on RXRα [4].

For `CCN(c1ccc(C(=O)O)cc1)c1ccc2c(c1)C(C)(C)CC(=O)N2C(C)C` [Compound 6, 4-[(1-Isopropyl-4,4-dimethyl-2-oxo-1,2,3,4-tetrahydroquinolin-6-yl)ethylamino]benzoic Acid], the Ki was 9 µM on RXRα [1], more than 10 µM at RXRγ [2] and more than 30 µM on RARβ. Further, the EC50 at RXRα [4] came out at 1 µM. Moreover, the Emax at RXRα [4] amounted to 50%.
